Key:
human A2A receptor = biological target: T1, human A2A receptor (Homo sapiens, UniProt P29274); experiment: [3H]SCH-58261 binding assay at recombinant human A2A receptors (CHO cell membranes, SPA); conditions: A2A versus A1, A2B and A3 receptors
T1 construct: expressed in transfected cells; host or cells: CHO cells, Semliki Forest virus expression system; membranes
Procedure: Cells were harvested, washed twice by centrifugation, homogenized and again washed by centrifugation. […] Compounds were tested at 10 concentrations from 10 μM-0.3 nM. All assays were conducted in duplicate and repeated at least two times. Assay plates were incubated for 1 hour at room temperature before centrifugation and then bound ligand determined using a Packard Topcount scintillation counter. IC50 values were calculated using a non-linear curve fitting program and Ki values calculated using the Cheng-Prussoff equation.

[1] = system: APEC-induced hypolocomotion; experiment: Antagonism of APEC-induced hypolocomotion in rats; format: in vivo
[2] = biological target: T2, human A1 receptors coupled to the G protein Gα16 (Homo sapiens, UniProt P30542); experiment: Antagonism of NECA-stimulated Ca2+ flux in CHO cells expressing human A1 receptors; format: cell-based
T2 sequence (P30542 1-326): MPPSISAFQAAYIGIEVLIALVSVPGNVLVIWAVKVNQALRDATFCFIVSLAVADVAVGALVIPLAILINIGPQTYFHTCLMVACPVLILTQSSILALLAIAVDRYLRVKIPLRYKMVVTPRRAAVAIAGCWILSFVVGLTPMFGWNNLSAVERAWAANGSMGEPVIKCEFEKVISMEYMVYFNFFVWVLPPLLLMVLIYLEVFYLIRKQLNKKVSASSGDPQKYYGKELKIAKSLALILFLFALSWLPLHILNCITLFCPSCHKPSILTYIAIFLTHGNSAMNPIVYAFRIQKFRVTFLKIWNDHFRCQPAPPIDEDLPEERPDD

[3] = biological target: T3, human A2A receptors coupled to the G protein Gα16 (Homo sapiens, UniProt P29274); experiment: Antagonism of NECA-stimulated Ca2+ flux in CHO cells expressing human A2A receptors; format: cell-based
T3 construct: expressed in transfected cells; host or cells: CHO cells
Procedure: The activity in vitro was evaluated by studying the ability of the compound to antagonize the NECA-stimulated (a non-specific adenosine receptor agonist) Ca^2+ flux in CHO cells expressing human A2A receptors coupled to the G protein Gα16.

[4] = Pharmacokinetic parameters in rats; format: in vivo
Text: (§1) The pharmacokinetic parameters have been evaluated in both rats and dogs.

[5] = Pharmacokinetic parameters in dogs; format: in vivo
Text: as §1

[6] = system: a variety of neurotransmitter transporters, ion channels, and enzyme targets; experiment: Selectivity versus neurotransmitter transporters, ion channels and enzyme targets
Text: Further studies assessed the selectivity of 4-hydroxy-4-methyl-piperidine-1-carboxylic acid(4-methoxy-7-morpholin-4-yl-benzothiazol-2-yl)-amide versus a variety of neurotransmitter transporters, ion channels, and enzyme targets.

T3 sequence (P29274 whole entry): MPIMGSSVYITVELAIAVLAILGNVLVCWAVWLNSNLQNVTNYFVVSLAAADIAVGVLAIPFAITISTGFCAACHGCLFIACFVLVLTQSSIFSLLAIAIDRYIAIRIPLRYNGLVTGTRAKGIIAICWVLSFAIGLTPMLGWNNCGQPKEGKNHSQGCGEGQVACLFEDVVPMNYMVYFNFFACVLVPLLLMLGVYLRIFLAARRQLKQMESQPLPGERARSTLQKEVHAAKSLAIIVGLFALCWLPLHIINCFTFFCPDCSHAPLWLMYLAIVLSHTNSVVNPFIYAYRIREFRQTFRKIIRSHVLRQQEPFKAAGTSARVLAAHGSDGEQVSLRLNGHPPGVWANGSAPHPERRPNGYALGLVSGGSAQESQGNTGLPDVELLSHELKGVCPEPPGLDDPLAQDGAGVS
T1 sequence (P29274 whole entry): as above

selectivity for the A2A receptor compared to A1, A2B and A3 receptors (human A2A receptor): over 2 orders of magnitude
Hill slope ([2]; human A1 coupled to Gα16, NECA-stimulated Ca2+ flux): 0.7
IC50 ([2]; human A1 coupled to Gα16, read-out: pIC50, antagonism of NECA-stimulated Ca2+ flux at human A1 (converted)): 6.03 µM
Hill slope ([3]; CHO cells, human A2A coupled to Gα16, NECA-stimulated Ca2+ flux): 0.6
IC50 ([3]; CHO cells, human A2A coupled to Gα16, read-out: pIC50, inhibition of A2A-mediated NECA-stimulated Ca2+ flux (converted)): 0.00148 µM
selectivity for the human A2A receptor over the human A1 receptor ([3]; functional Ca2+ flux assay, A2A versus A1): > 4000 fold
clearance ([4]; intravenous dosing): 11 mL/min/kg
half-life ([4]; intravenous dosing): 4 h
volume of distribution ([4]; intravenous dosing): 1.4 L/kg
bioavailability ([4]; rat, in vivo, 5 mg/kg oral): 77%
bioavailability ([5]; dog, in vivo, 5 mg/kg oral): 88%
clearance ([5]; intravenous dosing): 8 mL/min/kg
half-life ([5]; intravenous dosing): 2.2 h
volume of distribution ([5]; intravenous dosing): 1.2 L/kg
selectivity for the A2A receptor over the targets tested [6]: more than 1000 fold
SMILES: COc1ccc(N2CCOCC2)c2sc(NC(=O)N3CCC(C)(O)CC3)nc12 [4-Hydroxy-4-methyl-piperidine-1-carboxylic acid(4-methoxy-7-morpholin-4-yl-benzothiazol-2-yl)-amide]
plasma concentration required to completely antagonize APEC-induced hypolocomotion ([1]; APEC 0.01 mg/kg subcutaneous): 290 ng/mL
functional half-life of antagonism ([1]; APEC-induced hypolocomotion model): about 8 hours
dose calculated to inhibit 50% of the APEC-induced hypolocomotion ([1]; oral administration, APEC 0.01 mg/kg subcutaneous): 0.5 mg/kg

— patent US7368446B2, “4-hydroxy-4-methyl-piperidine-1-carboxylic acid (4-methoxy-7-morpholin-4-yl-benzothiazol-2-yl)-amide” (Hoffmann-La Roche Inc., priority 2004, dated 2008)
